Reference: US8097241B2, “Formulation and method for treating animal waste” (priority 2007, dated 2012)

What was measured:
[1] = Rate of malodor disappearance from dog waste stirred at 40° C.; settings: oxidizing agent added to the formulation or as aqueous solution
Description: 1. The specific amount of feces was weighed (about 4.0 g; accuracy of 1 mg) out and transferred to the 200 mL beaker.
2. 100.0 g of aqueous solution containing either no additives or the selected ones weighed at the same balance (accuracy of 1 mg) was added to the beaker.
3. The sample was located on a hot plate and stirred magnetically at 40° C. in the fume hood.
4. The samples were checked for the released smell every few minutes.
50.0 mL of deionized water containing selected quantities of detergent, pH affecting agent and protease (same concentration as in the formulation divided by 50 since this is the planned dilution with water), pH affecting agent and protease • a. no additives • b. Cola Lipid (0.20 g); protease (Alcalase 3.0T, 0.008 g), sodium perborate tetrahydrate (0.012 g), citric acid (to adjust pH to about 3.0), • c. Cola Lipid (0.20 g); protease (Alcalase 3.0T, 0.008 g), sodium perborate tetrahydrate (0.012 g), sodium hydrogen carbonate (to adjust pH to about 10.0), • d. Cola Lipid (0.20 g); protease (Alcalase 3.0T, 0.008 g), 5% hydrogen peroxide (0.100 g), citric acid (to adjust pH to about 3.0) was added to 3.00 g of the dog waste. The mixtures were located in the fume hood, heated on the hot plate to 40° C. and stirred magnetically. […] The malodor of the sample “a” disappeared after about 30 minutes.

[2] = Rate of disintegration of animal waste: time to a uniformly distributed suspension under magnetic stirring; parameters: species or system dog; settings: about 5 g waste, 90.0 g water, stirring about 90 rpm; water alone 16 minutes
Description: 1. The selected amount of feces was weighed out with the accuracy of 10 mg. All the samples had the same mass within 200 milligrams.
2. […]
3. The mixture was mixed at specific rate (about 90 rpm) using a magnetic bar inside the solution and a magnetic stirrer. The amount of time necessary to produce a uniformly distributed suspension was measured.

animal waste bio-burden = assay: Lowering of animal waste bio-burden: dog waste homogenised with additives, serially diluted, plated on agar, CFUs counted; assay type: cell-based
Description: 1. A specific amount of a dog waste weighed with the accuracy of 1 mg (usually between 3 and 7 g) was transferred into the sterilized homogenizer. In a set of experiments performed on a given day the mass of all the samples were the same within 20.0 mg.
2. All the required additives were weighed out using the same balance and introduced into a specific amount of deionized, freshly boiled (but cooled to room temperature) water (usually between 50.0 g and 100.0 g) in the sterilized Erlenmeyer flask.
3. Next, the aqueous solution of additives was transformed into the homogenizer.
4. The mixture was mixed at low (18,000 RPM) for a specific amount of time (usually 30 seconds).
5. The resulting suspension was transferred to the sterilized Erlenmeyer flask and gradually diluted 10 times in several subsequent dilution steps. Initially, 5.0 mL of the non-diluted solution was added to 45.0 mL of deionized, freshly boiled water. The Eppendorf pipettes were used for further dilutions and in each case […] of the previous sample after vortex was added to 0.900 mL of deionized, freshly boiled water in a sterile vial. Usually, 6 or 7 dilutions were performed. In every set of experiments one sample consisted of the feces and water only. All the results were measured against this sample.
6. […]
8. Next, each sample was counted to determine the number of CFUs (colony forming units).

Compound | reduction of malodor of feces, in words [1] | Time until feces disintegration [2] | further results
O.O.O.O=BO[O-].[Na+] [sodium perborate trihydrate] | significantly reduced malodours |  | 
sodium perborate | destroy the malodor very effectively |  | reduction of malodor of feces, in words ([1]; listed as Sodium perborate): effectively minimizes the malodor of feces
CCCCCCCC/C=C\CCCCCCCC(=O)OCCOCC(OCCO)C1OCC(OCCO)C1OCCO (stereo not shown) [Tween 80, polysorbate 80] |  | 2 min | 
CCCCCCCCCCCCOS(=O)(=O)[O-].[Na+] [Sodium dodecyl sulfate, sodium dodecyl sulfate] |  | 1 min | 
O=C(OO)c1cccc(Cl)c1 [metachloroperbenzoic acid (MCPBA), metachloroperbenzoic acid] | destroy the malodor very effectively |  | 
cocamidopropyl PG-dimonium chloride phosphate [Cola lipid] |  | 1 min | effect of added citric acid on antimicrobial activity (animal waste bio-burden; formulation of Table 3 against the same formulation without citric acid): significantly enhanced the antimicrobial activity; antimicrobial activity, comparison in words (animal waste bio-burden; treating animal waste): significantly better antimicrobial activity
octoxynol [Triton X100] |  | 4 min | 
